# Test results as given in paper PMC12349723, “Computationally accelerated identification of P-glycoprotein inhibitors” (PLOS One, 2025).
# Where “and” joins values, the source holds several entries; their conditions need not be identical. Equal values may be shown once.
# Key:
# Assay type in all cases: cell-based, human
# [1] = system: A2780-ADR cells; assay: MTT viability assay, reversal of MDR in P-gp overexpressing A2780-ADR cells; details: A2780-ADR cells; for Mean % Survival: mean of 12 samples; for % Survival (individual sample): single samples (trials 1-3, samples 1-4)
# Procedure: (§1) The chemotherapeutic sensitive DU145 human prostate cancer cells and the multidrug resistant sub-line, DU145-TXR, were generous gifts from Dr. Evan Keller (University of Michigan, Ann Arbor, MI). The MDR, P-gp overexpressing DU145-TXR cells were maintained under positive selection pressure by supplementing complete medium with 10 nM paclitaxel (Acros Organics, NJ). In addition to the aforementioned cell lines, the chemotherapeutic sensitive A2780 ovarian cancer cells (93112519, Sigma) and the multidrug resistant A2780-ADR (93112520, Sigma) were maintained in complete RPMI media consisting of RPMI-1640 with L-glutamine, 10% fetal bovine serum (FBS; Corning), 100 U/mL penicillin and 100 μg/mL streptomycin in a humidified incubator at 37 °C and 5% CO2. The MDR, P-gp overexpressing A2780-ADR cell line was maintained under positive selection pressure by supplementing complete medium with 100 nM doxorubicin (Fisher Scientific, NJ). The non-cancerous HFL1 (human lung fibroblast) cell line cell line was a generous gift from Dr. Robert Harrod (Southern Methodist University, Dallas, TX) and was maintained in complete F12K media consisting of F12K with 10% fetal bovine serum, 100 U/mL penicillin, and 100 µg/mL streptomycin (Gibco). Flasks and 96 well plates that were used with the non-cancerous line HFL1 were pre-treated with 0.1 mg/ml Collagen Type 1 (Gibco) and rinsed with PBS (Fisher).
# (§2) Culture of the DU145, DU145-TXR, and HFL1 cell lines was performed as described in [8]. Culture of the A2780 and A2780-ADR cell lines was performed as described in [9]. MTT assays were performed as described in [8] with minor modifications. LC-MS/MS accumulation assays were performed as described in {Nanayakkara, 2018 #173} [9] with some modifications. […] The inhibitor concentration was lowered to 15 µM here, as the goal of the study was to identify compounds that were effective in reversing MDR at low concentrations, and to determine if the expanded virtual-assisted methods improved on our first-draft attempt. Compounds 56–98 were pre-screened using Resazurin cell viability assays: cells were incubated with 15 µM compound with or without 500 nM PTX for 48 hours, after which cell survival was assessed similar to [39]. Data represent the mean of two separate experiments, with n = 3 samples per experiment (n = 6 total) (S4 Table). The top performing compounds from this initial screen were re-tested with MTT viability assays against DU145-TXR cells, as described below.
# (§3) MTT assays measure the reduction of yellow, water soluble 3-(4,5-dimethylthiazol-2-yl)-2,5-diphenyltetrazolium bromide (MTT) to blue, insoluble formazan crystals by cellular reductase processes in living cells. Cells were trypsinized from monolayers and seeded in complete medium in 96 well plates. Cancerous cell lines (DU145, DU145-TXR, A2780, A2780-ADR) were seeded at 3,000 cells per well in complete RPMI medium. The non-cancerous HFL1 line was seeded at 4,000 cells per well in complete F12K medium, in collagen-treated plates (Collagen Type 1, Gibco). Cells were incubated with experimental compounds for 48 hours at 37 °C and 5% CO2 in a humidified incubator. At 48 hours, MTT was added (20 µL/well of 5 mg/mL MTT in PBS) to each well. After incubation for 4 hours, the media was removed, and the formazan crystals were dissolved in 100 µL DMSO per well. Plates containing the semi-adherent A2780 or A2780-ADR lines were spun at 1400 rpm for 3 minutes prior to aspiration of media, and the addition of DMSO. Plates were shaken for 10 minutes at 500 rpm on an Orbital shaker (LabDoctor from MidSci, St Louis, MO). The absorbance was measured at 570 nm using a Bio-Tek Cytation 5 (Bio-Tek, Winooski, VT). The measured absorbance value was correlated with the number of metabolically active cells in that well, corrected for absorbance of media. […]
# [2] = system: DU145-TXR cells; assay: MTT viability assay, reversal of MDR (re-sensitization to paclitaxel) in P-gp overexpressing DU145-TXR cells; details: DU145-TXR; for % Survival, mean: mean of 8 samples
# Procedure: as §1, §2, §3
# [3] = system: A2780 cells; assay: MTT viability assay, parental A2780 cells, with or without PTX; details: A2780 cells; for Mean % Survival: mean of 8 or 12 samples; for % Survival (individual sample): single samples
# Procedure: as §1, §2, §3
# [4] = system: DU145 cells; assay: MTT viability assay, non-P-gp overexpressing DU145 parental line, with or without PTX; details: DU145 cells, 48 h
# Procedure: as §1, with “In addition to the aforementioned cell lines, the chemotherapeutic sensitive A2780 ovarian cancer cells (93112519, Sigma) and the multidrug resistant A2780-ADR (93112520, Sigma) were maintained in complete RPMI media consisting of RPMI-1640 with L-glutamine, 10% fetal bovine serum (FBS; Corning), 100 U/mL penicillin and 100 μg/mL streptomycin in a humidified incubator at 37 °C and 5% CO2.” left out
# Culture of the DU145, DU145-TXR, and HFL1 cell lines was performed as described in [8]. Culture of the A2780 and A2780-ADR cell lines was performed as described in [9]. MTT assays were performed as described in [8] with minor modifications. […] Data represent the mean of two separate experiments, with n = 3 samples per experiment (n = 6 total) (S4 Table).
# MTT assays measure the reduction of yellow, water soluble 3-(4,5-dimethylthiazol-2-yl)-2,5-diphenyltetrazolium bromide (MTT) to blue, insoluble formazan crystals by cellular reductase processes in living cells. Cells were trypsinized from monolayers and seeded in complete medium in 96 well plates. Cancerous cell lines (DU145, DU145-TXR, A2780, A2780-ADR) were seeded at 3,000 cells per well in complete RPMI medium. The non-cancerous HFL1 line was seeded at 4,000 cells per well in complete F12K medium, in collagen-treated plates (Collagen Type 1, Gibco). Cells were incubated with experimental compounds for 48 hours at 37 °C and 5% CO2 in a humidified incubator. At 48 hours, MTT was added (20 µL/well of 5 mg/mL MTT in PBS) to each well. After incubation for 4 hours, the media was removed, and the formazan crystals were dissolved in 100 µL DMSO per well. Plates containing the semi-adherent A2780 or A2780-ADR lines were spun at 1400 rpm for 3 minutes prior to aspiration of media, and the addition of DMSO. Plates were shaken for 10 minutes at 500 rpm on an Orbital shaker (LabDoctor from MidSci, St Louis, MO). The absorbance was measured at 570 nm using a Bio-Tek Cytation 5 (Bio-Tek, Winooski, VT). The measured absorbance value was correlated with the number of metabolically active cells in that well, corrected for absorbance of media. The percent of cell viability (termed ‘survival’ here) was calculated as a percentage of survival of the control condition, which refers to vehicle-treated (DMSO as vehicle) cells, or vehicle-and-chemotherapeutic-treated cells, if testing a compound’s ability to re-sensitize cells to a chemotherapeutic. Percent survival was calculated using the following equation:
# % Survival=100 × absorbance of experimental cells/mean absorbance of control treated cells
# For DU145-TXR, DU145, HFL1 and A2780 cells – data are the mean ± one standard deviation, 8 samples per compound, from at least two independent trials per compound. […] For A2780-ADR cells, data are the mean ± one standard deviation with 12 samples per compound, from at least two independent trials per compound.
# 67 compounds were chosen from computational screens for testing in vitro. A) DU145-TXR cells were exposed to 15 µM experimental compound with or without 500 nM of the P-gp substrate and chemotherapeutic paclitaxel (PTX).
# [5] = single samples, 2 trials x 4 samples, listed as VPL
smiles,measurement,setting,value
COc1ccc(CCN(C)CCCC(C#N)(c2ccc(OC)c(OC)c2)C(C)C)cc1OC (stereo not drawn) [VER],Mean % Survival,[1]; 15 µM compound + 500 nM PTX,52.3%
same,% Survival (individual sample),[1]; 15 µM compound + 500 nM PTX,58% and 57% and 53% and 42% and 41% and 51% and 47%
same,Mean % Survival,[1]; 15 µM compound alone,84.8%
same,% Survival (individual sample),[1]; 15 µM compound alone,80% and 82% and 85% and 92% and 94% and 95% and 89% and 81% and 77% and 66%
same,"% Survival, mean",[2]; 15 µM Compound Alone,86.2%
same,% Survival,"[2]; 15 µM Compound Alone, trial 1, sample 1",98%
same,% Survival,"[2]; 15 µM Compound Alone, trial 1, sample 2",95%
same,% Survival,"[2]; 15 µM Compound Alone, trial 1, sample 3",96%
same,% Survival,"[2]; 15 µM Compound Alone, trial 1, sample 4",90%
same,% Survival,"[2]; 15 µM Compound Alone, trial 2, sample 1",79%
same,% Survival,"[2]; 15 µM Compound Alone, trial 2, sample 2",74%
same,% Survival,"[2]; 15 µM Compound Alone, trial 2, sample 3",72%
same,% Survival,"[2]; 15 µM Compound Alone, trial 2, sample 4",85%
same,"% Survival, mean","[2]; 15 µM compound + 500 nM PTX (Paclitaxel, Taxol)",21.9%
same,% Survival,"[2]; 15 µM compound + 500 nM PTX (Paclitaxel, Taxol), trial 1, sample 1",19%
same,% Survival,"[2]; 15 µM compound + 500 nM PTX (Paclitaxel, Taxol), trial 1, sample 2",23%
same,% Survival,"[2]; 15 µM compound + 500 nM PTX (Paclitaxel, Taxol), trial 1, sample 3",29%
same,% Survival,"[2]; 15 µM compound + 500 nM PTX (Paclitaxel, Taxol), trial 1, sample 4",18%
same,% Survival,"[2]; 15 µM compound + 500 nM PTX (Paclitaxel, Taxol), trial 2, sample 1",23%
same,% Survival,"[2]; 15 µM compound + 500 nM PTX (Paclitaxel, Taxol), trial 2, sample 2",20%
same,% Survival,"[2]; 15 µM compound + 500 nM PTX (Paclitaxel, Taxol), trial 2, sample 3",23%
same,% Survival,"[2]; 15 µM compound + 500 nM PTX (Paclitaxel, Taxol), trial 2, sample 4",21%
same,Mean % Survival,[3]; 15 µM compound + 500 nM PTX,14.9%
same,% Survival (individual sample),[3]; 15 µM compound + 500 nM PTX,17% and 18% and 12% and 50% and 11% and 10% and 9%
same,Mean % Survival,[3]; 15 µM compound alone,75.9%
same,% Survival (individual sample),[3]; 15 µM compound alone,74% and 75% and 86% and 67% and 64% and 83% and 79%
"COc1ccc(CCN(C)CCCC(C#N)(c2ccc(OC)c(OC)c2)C(C)C)cc1OC (stereo not drawn) [Verapamil, reference compound]","% Survival, Mean, 15 µM compound + 500 nM PTX",[4]; mean of 8 samples,8.6%
same,"% Survival, 15 µM Compound alone (individual samples)",[4]; [5],53%
same,"% Survival, 15 µM compound + 500 nM PTX (individual samples)",[4]; [5],7%
same,viability at 15 µM,"[4]; Homo sapiens, DU-145, 48 h, mean of 8 samples, read-out: % Survival, Mean, 15 µM Compound alone",45.5%
